Test results from publication PMC5547389, “Structure-activity relationships and molecular docking studies of chromene and chromene based azo chromophores: A novel series of potent antimicrobial and anticancer agents” (EXCLI Journal, 2017).
≈ marks a conversion by molar mass, not a printed value.

What was measured:
[1] = system: Human colon carcinoma (HCT-116); experiment: Cytotoxic screening; assay type: cell-based; settings: Homo sapiens, HCT-116; read-out: IC50 HCT-116
Description: (§1) Human colon carcinoma (HCT-116), human hepatocellular carcinoma (HEPG-2), adenocarcinomic human alveolar basal epithelial cell (A-549), and human breast adenocarcinoma (MCF-7) cell lines were obtained from the American Type Culture Collection (ATCC, Rockville, MD). The cells were grown on RPMI-1640 medium supplemented with 10 % inactivated fetal calf serum and 50 µg/ml gentamycin. The cells were maintained at 37 °C in a humidified atmosphere with 5 % CO2 and were subcultured two to three times a week. Potential cytotoxicity of the compounds was evaluated on tumor cells using the method of Gangadevi and Muthumary (2007[21]) (Klancnik et al., 2010[36]). The cells were grown as monolayers in growth RPMI-1640. The monolayers of 104 cells adhered at the bottom of the wells in a 96-well microtiter plate incubated for 24 h at 37 °C in a humidified incubator with 5 % CO2. The monolayers were then washed with sterile phosphate buffered saline (0.01 M pH 7.2) and simultaneously the cells were treated with 100 µL from different dilutions of tested sample in fresh maintenance medium and incubated at 37 °C. A control of untreated cells was made in the absence of tested sample. Positive controls containing doxorubicin were also tested as a reference drug for comparison. Six wells were used for each concentration of the test sample. Every 24 hours an observation under the inverted microscope was made. The number of the surviving cells was determined by staining the cells with crystal violet (Mosmann, 1983[42]; Gangadevi and Muthumary, 2007[21]) followed by cell lysing using 33 % glacial acetic acid and reading the absorbance at 590 nm using microplate reader (SunRise, TECAN, Inc, USA) after well mixing. The absorbance values from untreated cells were considered as 100 % proliferation. The number of viable cells was determined using microplate reader as previously mentioned before and the percentage of […] was calculated as [1-(ODt/ODc)] x 100 % where ODt is the mean optical density of wells treated with the tested sample and ODc is the mean optical density of untreated cells. The relation between surviving cells and drug concentration was plotted to get the survival curve of each tumor cell line after treatment with the specified compound. The 50 % inhibitory concentration (IC50), the concentration required to cause toxic effects in 50 % of intact cells, was estimated from graphic plots.
(§2) The in vitro cytotoxic activity was performed by MTT assay (Mosmann, 1983[42]; Alley et al., 1988[6]) against three human carcinoma cell lines: Human colon carcinoma (HCT-116), human breast adenocarcinoma (MCF-7), and human hepatocellular carcinoma (HEPG-2).

[2] = system: human breast adenocarcinoma (MCF-7); experiment: Cytotoxic screening; assay type: cell-based; settings: Homo sapiens, MCF7; read-out: IC50 MCF-7
Description: as §1, §2

[3] = system: human hepatocellular carcinoma (HEPG-2); experiment: Cytotoxic screening; assay type: cell-based; settings: HepG2, read-out: IC50 HepG-2
Description: as §1, §2

[4] = system: Syncephalastrum racemosum (RCMB 05922); experiment: Well diffusion assay (inhibition zone); assay type: cell-based; settings: RCMB05922, 5 mg/mL in DMSO, fungi, read-out: Inhibition Zone (IZ) diameter, S.R
Description: (§3) The microorganism inoculums were uniformly spread using sterile cotton swabs on a sterile Petri dish malt extract agar (for fungi) and nutrient agar (for bacteria). One hundred cubic millimeters of each sample was added to each well (10 mm-diameter holes were cut in the agar gel, 20 mm apart from one another). The systems were incubated for 24-48 h at 37 °C (for bacteria) and at 28 °C (for fungi). After incubation, the microorganism growth was observed. Inhibition zones of the bacterial and fungal growth were measured in millimeters. Tests were performed in triplicate (Cappuccino and Sherman, 1999[12]; Vanden Berghe and Vlientinck, 1991[62]).
(§4) All the newly synthesized compounds described in this report were screened for both antibacterial and antifungal activity via the reported agar diffusion well method (Vanden Berghe and Vlietinck, 1991[62]). The inhibition zones and minimum inhibitory concentrations (MIC) were determined by the serial dilution method (Cappuccino and Sherman, 1999[12]). The antimicrobial activity of the synthesized compounds was tested against a broad panel of microorganisms including two Gram-positive bacteria: Streptococcus pneumoniae (RCMB 010010) and Bacillus subtilis (RCMB 010067), two Gram-negative bacteria: Pseudomonas aeruginosa (RCMB 010043) and Escherichia coli (RCMB 010052), and four fungi: Aspergillus fumigatus (RCMB 02568), Syncephalastrum racemosum (RCMB 05922), Geotricum candidum (RCMB 05097), and Candida albicans (RCMB 05036). Ampicillin, ciprofloxacin, gentamicin and amphotericin B were used as positive control drugs (Atta-ur-Rahman and Thomsen, 2001[7]; Smania et al., 1999[57]). […] While in the case of Gm-ve bacteria, they had weak activity. In addition, certain strains of fungi were sensitive to tested compounds with an IZ range from 12-25 except Candida albicans.

[5] = system: Bacillus subtilis (RCMB 010067); experiment: Well diffusion assay (inhibition zone); assay type: cell-based; settings: RCMB010067, 5 mg/mL in DMSO, Gm+ve, read-out: Inhibition Zone (IZ) diameter, B.S
Description: as §3, §4

[6] = system: Aspergillus fumigatus (RCMB 02568); experiment: Well diffusion assay (inhibition zone); assay type: cell-based; settings: RCMB02568, 5 mg/mL in DMSO, fungi, read-out: Inhibition Zone (IZ) diameter, A.F
Description: as §3, §4

[7] = system: Streptococcus pneumoniae (RCMB 010010); experiment: Well diffusion assay (inhibition zone); assay type: cell-based; settings: RCMB010010, 5 mg/mL in DMSO, Gm+ve, read-out: Inhibition Zone (IZ) diameter, S.P
Description: as §3, §4

[8] = system: Escherichia coli (RCMB 010052); experiment: Well diffusion assay (inhibition zone); assay type: cell-based; settings: RCMB010052, 5 mg/mL in DMSO, Gm-ve, read-out: Inhibition Zone (IZ) diameter, E.C
Description: as §3, §4

[9] = system: Candida albicans (RCMB 05036); experiment: Well diffusion assay (inhibition zone); assay type: cell-based; settings: RCMB05036, 5 mg/mL in DMSO, fungi, read-out: Inhibition Zone (IZ) diameter, C.A
Description: as §3, §4

[10] = system: Syncephalastrum racemosum (RCMB 05922); experiment: MIC by serial dilution method; assay type: cell-based; settings: RCMB05922, fungi, read-out: Minimum inhibitory concentration, MIC, S.R
Description: as §4

[11] = system: Bacillus subtilis (RCMB 010067); experiment: MIC by serial dilution method; assay type: cell-based; settings: RCMB010067, Gm+ve, read-out: Minimum inhibitory concentration, MIC, B.S
Description: as §4

[12] = system: Aspergillus fumigatus (RCMB 02568); experiment: MIC by serial dilution method; assay type: cell-based; settings: RCMB02568, fungi, read-out: Minimum inhibitory concentration, MIC, A.F
Description: as §4

[13] = system: Pseudomonas aeruginosa (RCMB 010043); experiment: MIC by serial dilution method; assay type: cell-based; settings: RCMB010043, Gm-ve, read-out: Minimum inhibitory concentration, MIC, P.A
Description: as §4

[14] = system: Geotricum candidum (RCMB 05097); experiment: MIC by serial dilution method; assay type: cell-based; settings: fungi; read-out: Minimum inhibitory concentration, MIC, G.C
Description: as §4

[15] = system: Streptococcus pneumoniae (RCMB 010010); experiment: MIC by serial dilution method; assay type: cell-based; settings: RCMB010010, Gm+ve, read-out: Minimum inhibitory concentration, MIC, S.P
Description: as §4

[16] = system: Escherichia coli (RCMB 010052); experiment: MIC by serial dilution method; assay type: cell-based; settings: RCMB010052, Gm-ve, read-out: Minimum inhibitory concentration, MIC, E.C
Description: as §4

[17] = system: Pseudomonas aeruginosa (RCMB 010043); experiment: Well diffusion assay (inhibition zone); assay type: cell-based; settings: RCMB010043, 5 mg/mL in DMSO, Gm-ve, read-out: Inhibition Zone (IZ) diameter, P.A
Description: as §3, §4

[18] = system: Geotricum candidum (RCMB 05097); experiment: Well diffusion assay (inhibition zone); assay type: cell-based; settings: 5 mg/mL in DMSO; fungi; read-out: Inhibition Zone (IZ) diameter, G.C
Description: as §3, §4

melting point | MIC [10] | MIC [11] | MIC [12] | MIC [13] | MIC [14] | MIC [15] | MIC [16] | SMILES | IC50 [1] | IC50 [2] | IC50 [3] | zone of inhibition at 5000 µg/mL [4] | zone of inhibition at 5000 µg/mL [5] | zone of inhibition at 5000 µg/mL [6] | zone of inhibition at 5000 µg/mL [7] | zone of inhibition at 5000 µg/mL [8] | zone of inhibition at 5000 µg/mL [9] | zone of inhibition at 5000 µg/mL [17] | zone of inhibition at 5000 µg/mL [18]
265 °C | – | – | – | – | – | – | – | CC(=O)c1ccc(N=Nc2cc3c(cc2O)OC(N)=C(C#N)C3c2ccc(F)cc2)cc1 (stereo not shown) [13d, 6-(4-Acetyl-phenylazo)-2-amino-4-(4-fluoro-phenyl)-7-hydroxy-4H-chromene-3-carbonitrile] | 75 µg/mL (≈ 175 µM) | 80 µg/mL (≈ 187 µM) | 85 µg/mL (≈ 198 µM) | 11.4 mm | 13.2 mm | 13.4 mm | 12.9 mm | 10.8 mm | 8 mm | – | –
243 °C | 3.9 µg/mL (≈ 9.06 µM) | 0.06 µg/mL (≈ 0.139 µM) | 0.98 µg/mL (≈ 2.28 µM) | 3.9 µg/mL (≈ 9.06 µM) | 0.49 µg/mL (≈ 1.14 µM) | 0.12 µg/mL (≈ 0.279 µM) | 3.9 µg/mL (≈ 9.06 µM) | N#CC1=C(N)Oc2cc(O)c(N=Nc3ccc(C(=O)O)cc3)cc2C1c1ccccc1F (stereo not shown) [13e, 4-[2-Amino-3-cyano-4-(2-fluoro-phenyl)-7-hydroxy-4H-chromen-6-ylazo]-benzoic acid] | 46.7 µg/mL (≈ 109 µM) | 27.9 µg/mL (≈ 64.8 µM) | 20.5 µg/mL (≈ 47.6 µM) | 19.3 mm | 25.2 mm | 21.3 mm | 23.6 mm | 19.3 mm | – | 19.3 mm | 21.8 mm
280 °C | 3.9 µg/mL (≈ 9.69 µM) | 0.49 µg/mL (≈ 1.22 µM) | 15.6 µg/mL (≈ 38.8 µM) | 31.2 µg/mL (≈ 77.7 µM) | 1.95 µg/mL (≈ 4.85 µM) | 0.98 µg/mL (≈ 2.44 µM) | 15.6 µg/mL (≈ 38.8 µM) | N#CC1=C(N)Oc2cc(O)c(N=Nc3cccc(O)c3)cc2C1c1ccccc1F (stereo not shown) [13k, 2-Amino-4-(2-fluoro-phenyl)-7-hydroxy-6-(3-hydroxy-phenylazo)-4H-chromene-3-carbonitrile] | 71.4 µg/mL (≈ 177 µM) | 44.1 µg/mL (≈ 110 µM) | 41.8 µg/mL (≈ 104 µM) | 17.1 mm | 24.3 mm | 19.4 mm | 22.6 mm | 18.6 mm | – | 17.1 mm | 21.3 mm
